Here are results for two molecules from patent publication US10765639B2, “Nanocapsules, methods of manufacture and uses thereof” (ADISSEO FRANCE S.A.S., priority 2016, dated 2020).

Series [1] can be described thus: Bioavailability of TAC in vivo in roosters (plasma free tocopherol after force-feeding). Further details: species or system ISA Brown roosters; AUC 24 h (Room 1) / AUC 96 h (Room 1) / AUC 24 h (Room 2) / AUC 96 h (Room 2): concentration or dose not given beside the values. The settings on record: for AUC 24 h (Room 1) / AUC 96 h (Room 1): Room 1, force-feeding; for AUC 24 h (Room 2) / AUC 96 h (Room 2): Room 2, force-feeding. From the text: The experimental scheme is described in detail in Preveraud et al. 2015, British Poultry Science, 56: 1; 94-102.
Briefly, two rooms with 60 ISA Brown roosters are placed in individual cages. One week before assigning the treatments, the roosters are fed with a feed devoid of vitamin E.
The roosters (n=10 roosters per treatment) were force-fed with different TAC solutions in water.
Room 1: Dry nanocapsules C24 of example 1, • TOL and TAC, in the form of oil, as a blank
Room 2: C40 dry nanocapsules of example 1, • TOL and TAC, in the form of oil, as a blank.
After the force-feeding administration of the vitamin E products put in a capsule, blood samples were taken at 0, 6, 12, 24, 48 and 96 h post force-feeding. After centrifugation, the plasma is decanted and the free tocopherol is measured up by HPLC.

For series [2] the following is noted: oral administration, native vitamin E; cited from earlier work.

In the case of tocopherol [TOL], the “%/TAC 24 h (Room 1)” value in series [1] (Room 1, 24 h, diffusion percentage relative to TAC) was “+49%”. In addition, the “%/TAC 96 h (Room 1)” value in series [1] (Room 1, 96 h, diffusion percentage relative to TAC) is given as “+100%”. Besides, in series [1], the “AUC 24 h (Room 1)” value stood at 307 µg/mL/h, the “AUC 96 h (Room 1)” value was 1193 µg/mL/h, the “AUC 24 h (Room 2)” value was found to be 309 µg/mL/h and the “AUC 96 h (Room 2)” value was found to be 320 µg/mL/h. For the same molecule, the “%/TAC 24 h (Room 2)” value in series [1] (Room 2, 24 h, diffusion percentage relative to TAC) is reported as “+118%”. For the same molecule, the “%/TAC 96 h (Room 2)” value in series [1] (Room 2, 96 h, diffusion percentage relative to TAC) is on record as “+124%”. For the same molecule, in series [2], the “Bioavailability in animals when orally administered” value was no more than 50%.
On to `CC(=O)Oc1c(C)c(C)c2c(c1C)CCC(C)(CCC[C@H](C)CCC[C@H](C)CCCC(C)C)O2` (stereo partly drawn) [TAC, alpha-tocopherol acetate], for which, in series [1], the “AUC 24 h (Room 1)” value turned out to be 206 µg/mL/h, the “AUC 96 h (Room 1)” value stood at 597 µg/mL/h, the “AUC 24 h (Room 2)” value is 142 µg/mL/h and the “AUC 96 h (Room 2)” value was 340 µg/mL/h.
